Experimental data: ChEMBL document CHEMBL6074671, “Discovery of Pyridine-2-Carboxamides Derivatives as Potent and Selective HPK1 Inhibitors for the Treatment of Cancer” (J Med Chem, 2024)
Converted amounts (≈) assume the structure as drawn.

How the values were obtained:
[1] = target: Mitogen-activated protein kinase kinase kinase kinase 2 (Homo sapiens, UniProt Q12851); assay: Inhibition of human recombinant full length GST tagged N-terminal MAP4K2 (1 to 820 end residues) expressed in insect Sf21 cells
[2] = Effect on IL-2 secretion in human T cells by ELISA method; assay type: functional, cell-based; conditions: T-cell
[3] = Plasma protein binding in dog assessed as unbound fraction at 2 uM incubated for 4 hrs by LC-MS/MS analysis; assay type: ADME, cell-free, Canis lupus familiaris
[4] = target: Tyrosine-protein kinase JAK1 (Homo sapiens, UniProt P23458); assay: Inhibition of JAK1 (unknown origin)
[5] = Inhibition of ABL (unknown origin); parameters: species or system Homo sapiens
[6] = Half life in Balb/c mouse at 10 mg/kg, po; assay type: ADME, organism-based; conditions: in vivo
[7] = Genotoxicity in Salmonella typhimurium TA1535 incubated for 48 to 72 hrs in presence of S9 fraction by AMES test; assay type: toxicity, subcellular; conditions: salmonella enterica subsp. enterica serovar typhimurium, time 48-72 hrs
[8] = target: Cytochrome P450 2C19 (Homo sapiens, UniProt P33261); assay: Inhibition of CYP2C19 in human liver microsomes using S-mephenytoin 4-hydroxylation as substrate incubated for 10 mins in presence of NADPH by LC-MS/MS analysis; assay type: ADME, Microsome
[9] = cynomolgus monkey, in vivo, po, 2 mg/kg
[10] = Toxicity in C57BL/6 mouse implanted with mouse MC38 cells assessed as increase in survival at low dose, po BID measured after 12 days in presence of anti-PD-1; assay type: organism-based; conditions: in vivo, 288 h, time 12 day
[11] = target: Tyrosine-protein kinase Fyn (Homo sapiens, UniProt P06241); assay: Inhibition of FYN (unknown origin)
[12] = Toxicity in C57BL/6 mouse implanted with mouse MC38 cells assessed as increase in survival at low dose, po BID measured after 12 days; assay type: organism-based; conditions: in vivo, 288 h, time 12 day
[13] = Permeability of the compound in human Caco-2 cells measured after 90 mins by UPLC-MS/MS analysis; assay type: ADME, cell-based; conditions: read-out: permeability
[14] = in vivo; conditions: cynomolgus monkey, po, 2 mg/kg
Description: Half life in Cynomolgus monkey at 2 mg/kg, po

[15] = in vivo; conditions: Beagle, dog, plasma, iv, 1 mg/kg
Description: Clearance in Beagle dog plasma at 1 mg/kg, iv

[16] = Dose normalized AUC (0 to 24 hrs) in Balb/c mouse at 10 mg/kg, po; assay type: ADME, organism-based; conditions: in vivo
[17] = Genotoxicity in Salmonella typhimurium TA1537 incubated for 48 to 72 hrs in presence of S9 fraction by AMES test; assay type: toxicity, subcellular; conditions: salmonella enterica subsp. enterica serovar typhimurium, time 48-72 hrs
[18] = Plasma protein binding in rat assessed as unbound fraction at 2 uM incubated for 4 hrs by LC-MS/MS analysis; assay type: ADME, cell-free
[19] = target: Serine/threonine-protein kinase PAK 3 (Homo sapiens, UniProt O75914); assay: Inhibition of PAK3 (unknown origin)
[20] = system: MC-38; assay: Synergistic antitumor activity against mouse MC38 cells implanted in C57BL/6 mouse model assessed as CDI value at high dose, po BID measured after 12 days in presence of anti-PD-1; assay type: functional; conditions: time 12 day
[21] = target: Proto-oncogene tyrosine-protein kinase Src (Homo sapiens, UniProt P12931); assay: Inhibition of SRC (unknown origin)
[22] = target: Serine/threonine-protein kinase 3 (Homo sapiens, UniProt Q13188); assay: Inhibition of MST2 (unknown origin)
[23] = in vivo; conditions: Beagle, dog, po, 2 mg/kg
Description: Half life in Beagle dog at 2 mg/kg, po

[24] = target: Cytochrome P450 3A4 (Homo sapiens, UniProt P08684); assay: Inhibition of CYP3A4 in human liver microsomes using midazolam 1-hydroxylation as substrate incubated for 10 mins in presence of NADPH by LC-MS/MS analysis; assay type: ADME, Microsome
[25] = target: Tyrosine-protein kinase Blk (Homo sapiens, UniProt P51451); assay: Inhibition of BLK (unknown origin)
[26] = target: Mitogen-activated protein kinase kinase kinase kinase 1 (Homo sapiens, UniProt Q92918); assay: Inhibition of human recombinant wild type N-terminal HPK1 (1 to 346 residues) infected in insect Sf21 cells using fluorescein-PKC as substrate preincubated for 10 mins followed by substrate addition and measured after 90 mins by microplate reader based analysis; assay type: single protein
[27] = target: Cytochrome P450 2C9 (Homo sapiens, UniProt P11712); assay: Inhibition of CYP2C9 in human liver microsomes using diclofenac 4-hydroxylation as substrate incubated for 10 mins in presence of NADPH by LC-MS/MS analysis; assay type: ADME, Microsome
[28] = Solubility in compound in FessIF at pH 5.0 incubated for 24 hrs by HPLC-UV analysis; assay type: physicochemical
[29] = target: Serine/threonine-protein kinase PAK 2 (Homo sapiens, UniProt Q13177); assay: Inhibition of PAK2 (unknown origin)
[30] = in vivo; conditions: cynomolgus monkey, po, 2 mg/kg; remark: listed apart in the source
[31] = Toxicity in Balb/c mouse assessed as effect on body weight loss at 1.5 to 12 mg/kg, po BID measured after 15 days in presence of anti-PD1; assay type: organism-based; conditions: in vivo, 360 h, dose 1.5-12 mg/kg, time 15 day
[32] = Toxicity in C57BL/6 mouse implanted with mouse MC38 cells assessed as effect on body weight loss at high dose, po BID measured after 12 days in presence of anti-PD-1; assay type: organism-based; conditions: in vivo, 288 h, time 12 day
[33] = system: MC-38; assay: Antitumor activity against mouse MC38 cells implanted in C57BL/6 mouse model assessed as tumor growth inhibition at 12 mg/kg, po BID measured after 12 days relative to control; assay type: functional; conditions: MC-38, 288 h, time 12 day, read-out: TGI
[34] = system: MC-38; assay: Synergistic antitumor activity against mouse MC38 cells implanted in C57BL/6 mouse model assessed as tumor growth inhibition at high dose, po BID measured after 12 days in presence of anti-PD-1 relative to control; assay type: functional; conditions: time 12 day

Chain of Cytochrome P450 3A4 (P08684 whole entry): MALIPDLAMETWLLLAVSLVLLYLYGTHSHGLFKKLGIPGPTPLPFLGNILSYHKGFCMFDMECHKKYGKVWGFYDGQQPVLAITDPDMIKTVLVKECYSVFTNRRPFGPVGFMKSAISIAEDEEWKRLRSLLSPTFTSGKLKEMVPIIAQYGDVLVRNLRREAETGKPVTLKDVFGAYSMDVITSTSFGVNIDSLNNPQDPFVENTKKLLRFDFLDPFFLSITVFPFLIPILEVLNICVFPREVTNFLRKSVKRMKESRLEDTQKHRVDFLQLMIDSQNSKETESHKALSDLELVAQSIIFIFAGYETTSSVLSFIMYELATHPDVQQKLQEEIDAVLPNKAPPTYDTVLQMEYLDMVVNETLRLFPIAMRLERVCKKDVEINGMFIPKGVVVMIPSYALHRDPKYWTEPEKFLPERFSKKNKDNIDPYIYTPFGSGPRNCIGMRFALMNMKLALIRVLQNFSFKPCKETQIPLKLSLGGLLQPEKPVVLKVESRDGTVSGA
Chain of Cytochrome P450 2C9 (P11712 whole entry): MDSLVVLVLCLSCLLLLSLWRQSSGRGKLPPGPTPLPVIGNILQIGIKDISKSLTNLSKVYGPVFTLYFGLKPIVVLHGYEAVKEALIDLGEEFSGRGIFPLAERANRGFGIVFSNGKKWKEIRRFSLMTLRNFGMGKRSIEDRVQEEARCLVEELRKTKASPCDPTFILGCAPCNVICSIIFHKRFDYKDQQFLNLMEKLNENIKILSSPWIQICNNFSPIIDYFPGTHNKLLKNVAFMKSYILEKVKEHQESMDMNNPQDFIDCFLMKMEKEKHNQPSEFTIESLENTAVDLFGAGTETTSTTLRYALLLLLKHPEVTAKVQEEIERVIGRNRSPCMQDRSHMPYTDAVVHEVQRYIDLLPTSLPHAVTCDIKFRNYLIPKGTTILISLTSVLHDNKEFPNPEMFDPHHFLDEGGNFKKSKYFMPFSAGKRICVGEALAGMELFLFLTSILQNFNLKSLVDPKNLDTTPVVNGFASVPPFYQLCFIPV
Chain of Serine/threonine-protein kinase PAK 2 (Q13177 whole entry): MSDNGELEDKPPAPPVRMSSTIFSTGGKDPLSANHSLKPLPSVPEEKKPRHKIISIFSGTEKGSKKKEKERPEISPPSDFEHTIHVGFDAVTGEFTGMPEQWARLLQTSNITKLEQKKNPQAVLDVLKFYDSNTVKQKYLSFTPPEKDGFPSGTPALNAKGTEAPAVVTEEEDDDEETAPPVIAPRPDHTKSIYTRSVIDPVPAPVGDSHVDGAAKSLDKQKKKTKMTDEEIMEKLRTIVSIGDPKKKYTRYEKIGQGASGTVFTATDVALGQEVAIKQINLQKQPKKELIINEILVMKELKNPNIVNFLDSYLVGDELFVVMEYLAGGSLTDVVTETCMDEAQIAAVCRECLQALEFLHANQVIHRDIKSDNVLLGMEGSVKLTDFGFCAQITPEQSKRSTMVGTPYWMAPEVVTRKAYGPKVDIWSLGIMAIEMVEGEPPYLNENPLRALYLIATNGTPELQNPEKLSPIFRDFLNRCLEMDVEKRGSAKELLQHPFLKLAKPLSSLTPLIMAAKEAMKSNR
Chain of Tyrosine-protein kinase Fyn (P06241 whole entry): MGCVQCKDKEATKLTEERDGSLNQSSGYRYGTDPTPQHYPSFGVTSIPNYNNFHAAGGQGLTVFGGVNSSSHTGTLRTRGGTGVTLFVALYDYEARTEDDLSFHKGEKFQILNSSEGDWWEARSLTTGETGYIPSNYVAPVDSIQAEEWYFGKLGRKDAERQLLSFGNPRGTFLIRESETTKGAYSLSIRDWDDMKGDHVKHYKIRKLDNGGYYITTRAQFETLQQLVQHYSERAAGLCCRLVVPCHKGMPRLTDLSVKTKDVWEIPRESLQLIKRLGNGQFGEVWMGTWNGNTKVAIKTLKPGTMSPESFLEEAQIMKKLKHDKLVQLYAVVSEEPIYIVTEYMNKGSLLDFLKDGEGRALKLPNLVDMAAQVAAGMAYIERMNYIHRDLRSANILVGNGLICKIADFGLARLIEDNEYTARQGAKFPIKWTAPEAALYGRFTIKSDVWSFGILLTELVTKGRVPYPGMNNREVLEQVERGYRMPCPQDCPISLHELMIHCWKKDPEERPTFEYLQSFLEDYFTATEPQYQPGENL
Chain of Proto-oncogene tyrosine-protein kinase Src (P12931 2-536 limits assumed): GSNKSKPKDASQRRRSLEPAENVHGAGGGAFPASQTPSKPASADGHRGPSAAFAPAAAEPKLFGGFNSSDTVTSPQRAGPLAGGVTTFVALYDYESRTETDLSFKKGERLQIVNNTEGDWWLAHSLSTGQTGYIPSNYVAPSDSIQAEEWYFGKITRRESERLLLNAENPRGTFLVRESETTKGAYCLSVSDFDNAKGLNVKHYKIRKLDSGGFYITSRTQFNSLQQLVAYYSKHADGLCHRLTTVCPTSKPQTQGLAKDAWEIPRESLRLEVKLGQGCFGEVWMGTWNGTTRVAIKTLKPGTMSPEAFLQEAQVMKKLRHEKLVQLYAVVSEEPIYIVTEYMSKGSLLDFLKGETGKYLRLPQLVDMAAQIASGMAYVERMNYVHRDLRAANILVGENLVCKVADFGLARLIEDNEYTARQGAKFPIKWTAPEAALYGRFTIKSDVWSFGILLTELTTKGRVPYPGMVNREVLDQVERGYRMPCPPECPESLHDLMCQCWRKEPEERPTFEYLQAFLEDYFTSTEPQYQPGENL
Chain of Tyrosine-protein kinase JAK1 (P23458 whole entry): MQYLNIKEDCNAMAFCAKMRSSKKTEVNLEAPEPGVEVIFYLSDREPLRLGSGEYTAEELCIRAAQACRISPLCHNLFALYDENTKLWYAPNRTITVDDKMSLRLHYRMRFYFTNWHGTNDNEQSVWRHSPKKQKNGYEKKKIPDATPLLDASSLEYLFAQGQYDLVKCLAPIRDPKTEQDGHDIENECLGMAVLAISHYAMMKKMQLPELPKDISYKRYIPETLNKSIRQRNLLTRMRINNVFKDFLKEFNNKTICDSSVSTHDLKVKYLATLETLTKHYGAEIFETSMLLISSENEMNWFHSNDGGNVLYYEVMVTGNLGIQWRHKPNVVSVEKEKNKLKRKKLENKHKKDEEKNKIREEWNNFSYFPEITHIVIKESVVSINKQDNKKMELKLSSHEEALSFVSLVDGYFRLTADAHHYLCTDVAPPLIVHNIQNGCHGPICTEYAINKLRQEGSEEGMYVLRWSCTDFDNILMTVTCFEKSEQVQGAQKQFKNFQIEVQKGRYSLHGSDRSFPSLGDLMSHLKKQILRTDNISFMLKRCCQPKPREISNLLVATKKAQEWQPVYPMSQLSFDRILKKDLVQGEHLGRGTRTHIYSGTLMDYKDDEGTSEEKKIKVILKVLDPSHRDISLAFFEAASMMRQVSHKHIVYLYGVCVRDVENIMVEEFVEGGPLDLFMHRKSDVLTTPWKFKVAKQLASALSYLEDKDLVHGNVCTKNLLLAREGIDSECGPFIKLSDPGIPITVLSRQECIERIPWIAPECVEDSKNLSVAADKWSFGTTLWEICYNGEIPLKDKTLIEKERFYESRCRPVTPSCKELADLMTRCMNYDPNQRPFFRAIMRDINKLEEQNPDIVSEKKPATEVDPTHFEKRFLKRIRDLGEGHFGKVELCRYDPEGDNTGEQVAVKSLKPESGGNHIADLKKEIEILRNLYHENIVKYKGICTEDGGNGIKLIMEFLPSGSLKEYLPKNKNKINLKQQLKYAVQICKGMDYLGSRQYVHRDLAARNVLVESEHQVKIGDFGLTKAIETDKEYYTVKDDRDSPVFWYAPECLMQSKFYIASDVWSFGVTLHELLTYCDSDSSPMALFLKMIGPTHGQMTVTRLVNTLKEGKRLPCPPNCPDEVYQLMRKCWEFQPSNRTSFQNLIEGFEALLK
Chain of Serine/threonine-protein kinase PAK 3 (O75914 whole entry): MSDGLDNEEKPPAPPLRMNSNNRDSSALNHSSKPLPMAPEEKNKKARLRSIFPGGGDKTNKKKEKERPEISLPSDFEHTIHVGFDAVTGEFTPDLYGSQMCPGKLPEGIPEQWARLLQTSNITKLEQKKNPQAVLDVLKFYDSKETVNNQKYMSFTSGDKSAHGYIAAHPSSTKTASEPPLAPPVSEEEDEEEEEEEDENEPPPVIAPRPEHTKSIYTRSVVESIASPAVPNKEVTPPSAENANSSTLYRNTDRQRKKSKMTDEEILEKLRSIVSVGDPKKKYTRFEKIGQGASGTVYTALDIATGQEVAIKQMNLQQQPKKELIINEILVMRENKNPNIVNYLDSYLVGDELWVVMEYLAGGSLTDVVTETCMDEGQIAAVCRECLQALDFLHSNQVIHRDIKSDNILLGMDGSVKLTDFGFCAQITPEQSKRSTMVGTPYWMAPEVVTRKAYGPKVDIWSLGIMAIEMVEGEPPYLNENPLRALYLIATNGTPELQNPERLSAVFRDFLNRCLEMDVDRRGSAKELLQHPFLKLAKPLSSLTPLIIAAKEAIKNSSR
Chain of Cytochrome P450 2C19 (P33261 whole entry): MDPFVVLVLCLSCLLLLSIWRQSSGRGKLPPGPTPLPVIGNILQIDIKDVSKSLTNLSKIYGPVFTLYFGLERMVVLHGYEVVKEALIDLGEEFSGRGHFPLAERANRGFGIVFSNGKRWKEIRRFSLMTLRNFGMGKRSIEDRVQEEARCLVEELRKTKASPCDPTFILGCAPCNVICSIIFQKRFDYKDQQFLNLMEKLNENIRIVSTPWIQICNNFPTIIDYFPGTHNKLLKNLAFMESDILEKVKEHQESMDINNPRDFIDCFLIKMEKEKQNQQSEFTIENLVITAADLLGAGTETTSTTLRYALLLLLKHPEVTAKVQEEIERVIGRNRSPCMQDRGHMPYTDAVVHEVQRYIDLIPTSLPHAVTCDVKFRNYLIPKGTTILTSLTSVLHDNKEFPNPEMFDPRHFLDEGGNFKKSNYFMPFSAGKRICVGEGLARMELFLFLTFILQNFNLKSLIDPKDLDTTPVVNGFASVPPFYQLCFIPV

COc1cc(Nc2ccc3c(n2)CN(C)C32CCN(C3COC3)CC2)c(C(N)=O)nc1-c1cccc2c1ncn2C
IC50 [1]: 1.74 µM | EC50 [2]: 0.0388 µM | fraction unbound at 4 h, 2 µM [3]: 0.309 | IC50 [4]: > 10 µM | IC50 [5]: 4.42 µM | half-life [6]: 1.45 h | Activity [7]: Non-toxic | IC50 [8]: > 50 µM | AUC/dose [9]: 560.5 ng·h/mL | Activity [10]: Non-toxic | IC50 [11]: > 10 µM | Activity [12]: Non-toxic | Papp at […] [13]: 4.2 ×10⁻⁶ cm/s | half-life [14]: 8.73 h | clearance [15]: 11.4 mL/min/kg | AUC/dose [16]: 408.8 ng·h/mL | Activity [17]: Non-toxic | fraction unbound at 4 h, 2 µM [18]: 0.058 | IC50 [19]: > 10 µM | Activity [20]: 0.57 | IC50 [21]: 2.11 µM | IC50 [22]: > 10 µM | half-life [23]: 7.65 h | IC50 [24]: > 50 µM | IC50 [25]: 1.89 µM | IC50 [26]: < 0.00051 µM | IC50 [27]: > 50 µM | solubility at 24 h [28]: 134 µM (≈ 74.3 µg/mL) | IC50 [29]: > 10 µM | bioavailability [30]: 42% | Activity [31]: Non-toxic | Activity [32]: Non-toxic | inhibition in vivo at 12 mg/kg [33]: 59.4% | TGI [34]: 83.3%
